Reference: patent US5451508A, “Method and monoclonal antibodies for vitamin B12 determination” (Boehringer Mannheim GmbH, priority 1989, dated 1995)

Test system: monoclonal antibody MAB 1 and MAB 2
Assay: ELISA determination of the cross-reaction of vitamin B12 derivatives with the monoclonal antibodies
Format: binding, mice
Conditions: for cross-reactivity: monoclonal antibodies according to the invention (e.g. from cell lines ECACC 88101301 and ECACC 88101302), stated in description; for cross-reaction: values identical for MAB 1 and MAB 2, antigen added at 50, 500, 5000 μg/ml, calculated from concentrations giving 50% of max. signal
Method: The plates are re-treated for 10 minutes with 0.9% sodium chloride solution and 1% albumin solution. Subsequently they are washed with 0.9% sodium chloride solution.
Afterwards they are incubated at 37° C. for one hour with 100 μl sample and washed again with 0.9% sodium chloride solution. In order to test the cross-reaction 50, 500 and 5000 μg/ml of the vitamin B12 derivative to be tested is added to the sample solution. A reduction of the measured signal in the presence of the derivative indicates a cross-reaction. A further incubation follows (1 hour, 37° C.) with 450 U/ml of a sheep-Fab-anti-mouse Fcγ peroxidase conjugate. After washing once again with 0.9% sodium chloride the peroxidase activity is determined in the usual way (for example with 2,2'azino-di-[3-ethylbenzthiazoline sulphonate (6)] (ABTS®), 30 minutes at room temperature, the difference in absorbance ΔmA is read at 422 nm).
The antigen to be tested for cross-reaction is added in increasing concentrations (50 μg/ml, 500 μg/ml, 5000 μg/ml) to the monoclonal antibody. Afterwards the cross-reaction is calculated from the following formula: [formula]

| Compound | cross-reactivity | cross-reaction |
| --- | --- | --- |
| Purinylcobinamide | 1.1% | 1.1 |
| 2-hydroxy-5,6-dimethylbenzimidazolyl-cobamide | 1.5% | 1.5 |
| (carboxy(2-cyanamino-4,5-dimethylphenyl)-amino)-cobamide | 0.07% | 0.07 |
| C/C1=C2/[N-][C@H]([C@H](CC(N)=O)[C@@]2(C)CCC(=O)NC[C@@H](C)OP(=O)([O-])O[C@H]2[C@@H](O)[C@@H](n3cnc4cc(C)c(C)cc43)O[C@@H]2CO)[C@]2(C)N=C(/C(C)=C3N=C(/C=C4N=C1[C@@H](CCC(N)=O)C\4(C)C)[C@@H](CCC(N)=O)[C@]\3(C)CC(N)=O)[C@@H](CCC(N)=O)[C@]2(C)CC(N)=O.[CH3-].[Co+3] [Methylcobalamin] | 100% | 100 |
| Cobyrinic acid-diamide | < 0.05% | < 0.05 |
